These results are taken from patent US20220280557A1, “Metabolic Reprogramming of Immune Cells for the Treatment or Prevention of Diseases and Disorders” (Arizona Board of Regents on behalf of Arizona State …, priority 2019, published 2022).

The subject of one series is BMDCs. Nature of the series: CD86 / MHCII expression in BMDCs by flow cytometry. Type of series: cell-based. The protocol:
Next, it was assessed if the changes in BMDC glycolytic rates can affect surface co-stimulatory CD86 expression in BMDCs, using flow cytometry. In this study, pro-inflammatory DCs were defined as the frequency of […].
Since DCs indeed phagocytose paKG-based MPs in vivo, it was hypothesized that the observed reduction in paw swelling in the CIA mice treated with paKG(PFK15+bc2) MPs, may be due to the paKG(PFK15+bc2) MPs modulating DC function (FIG. 8A). Therefore, first effect of paKG(PFK15+bc2) MPs on in vitro cultured BMDCs in the form of altered CD86, MHCII, IL-10, IL-12p70 and TNFα expression in CD11c^+ cells was tested.

The test system of series [1] is glycolysis (ECAR) in BMDCs. Nature of the series: Extracellular flux assay (ECAR). In kind it is cell-based. The protocol:
Reduction in CD86 expression by inhibiting glycolysis in DCs can affect pro-inflammatory DC activation in the presence of lipopolysaccharide (LPS), which is used to mimic inflammation in vitro (FIG. 5A). Therefore, it was tested if PFK15 by itself can block glycolysis in bone marrow-derived DCs (BMDCs) in the presence or absence of LPS. To assess this, the extracellular acidification rate (ECAR) of BMDCs was determined by extracellular flux assays. BMDCs treated with LPS only and no treatment were used as controls.
To test this, extracellular flux assays were used, and pre-activated DCs with LPS and no treatment were used as controls.

Series [2] in a line: Release of PFK15 from polymeric particles (plate reader). The conditions noted are these: from paKG polymeric particles. Type of series: physicochemical. Here is the method:
(§1) Another set of polymeric particles were generated using water-oil-water emulsion encapsulating bovine collagen type II (bc2—antigen) in the presence of PFK15 in the particles. Percentage encapsulation efficiency (EE) and percentage loading (μg of drug per mg of particles) for bc2, and PFK15 was determined using BCA assay, and absorbance spectrophotometer (plate reader), respectively (Table 1). Moreover, the release of PFK15 were studied using a plate reader, and it was determined that the polymeric particles released the drug in a sustained manner over a period of 30 days.

Series [3] in a line: Encapsulation efficiency and loading (BCA assay, absorbance spectrophotometer). In kind it is physicochemical. The conditions noted are these: for % EE: Table 1, encapsulated in paKG particles; for % loading: Table 1, μg of drug per mg of particles. The protocol:
In one embodiment, the metabolite-based polymer or polymeric particle has at least one of high loading and high encapsulation efficiency of the at least one therapeutic agent. Encapsulation efficiency is the percentage of drug that is successfully entrapped into a polymeric particle. In one embodiment, encapsulation efficiency (% EE) is calculated by (total drug added—free non-entrapped drug) divided by the total drug added. Loading capacity is the amount of drug loaded per unit weight of a polymeric particle, indicating the percentage of mass of the polymeric particle that is due to the encapsulated drug. In one embodiment, loading capacity (% LC) can be calculated by the amount of total entrapped drug divided by the total polymeric particle weight. In one embodiment, the polymeric particle has about 50% to about 100% encapsulation efficiency of the at least one therapeutic agent. In one embodiment, the polymeric particle has about 60% to about 100% encapsulation efficiency of the at least one therapeutic agent.
as §1

The mark [4] stands for this setting: with and without LPS, vs LPS and no treatment.

On to `O=C(C=Cc1ccc2ccccc2n1)c1ccncc1` [PFK15, 1-(4-pyridinyl)-3-(2-quinolinyl)-2-propen-1-one], for which the “frequency of pro-inflammatory BMDC populations” value in the series with BMDCs (in the absence of LPS, vs no treatment) is on record as “significantly decreased”. Further, the “decrease of frequency of CD86+MHCII+ of CD11c+ BMDCs” value with BMDCs (in the presence of LPS, vs LPS) is recorded as “approximately 8 fold”. In the series with BMDCs (setting [4]), the “CD86 expression in CD11c+ cells” value was “reduced CD86 expression” and the “anti-inflammatory BMDC populations” value is “did not significantly decrease”. Also, in series [1] (in the presence of LPS, vs LPS alone), the “lowering of glycolysis (ECAR)” value is listed as 60%. In series [1] (without LPS, vs no treatment), the “ECAR in BMDCs” value is on record as “did not significantly reduce ECAR”. In addition, the “period of sustained release of PFK15” value in series [2] is 30 days. For the same molecule, in series [3], the “% EE” value came out at 68% and the “% loading” value amounted to 1.7 µg/mg. The “percentage encapsulation efficiency of PFK15 within paKG MPs” value in series [3] (paKG(PFK15) MPs) came out at 68±17%. For the same molecule, in series [3] (per mg of paKG MPs), the “percentage loading efficiency of PFK15” value stood at 2 ± 1 µg/mg.
Consider “bc2: bovine collagen type II (bc2) antigen”, for which, in series [3], the “% EE” value is recorded as 60% and the “% loading” value turned out to be 3 µg/mg. Moreover, the “percentage encapsulation efficiency of bc2” value in series [3] (paKG(PFK15+bc2) MPs) is recorded as 60 % (wt/wt). Besides, in series [3] (per mg of MPs, paKG(PFK15+bc2) MPs), the “percentage loading efficiency of bc2” value turned out to be 3 µg/mg.
